Key:
p70 (NAMPT) = biological target: T1, p70 (NAMPT) (Homo sapiens, UniProt P43490); experiment: binding competition for photo-crosslinking of P7C3-S326 to p70 in H2122 cells; conditions: 0.3 μM P7C3-S326 plus 5 μM competitor, p70 band intensity, P7C3-S326 alone compared with plus competitor, vehicle 1.0
T1 construct: endogenous in cells; host or cells: H2122 lung cancer cells
Method in brief: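 Competition for photo-crosslinking: P7C3 analogs (5 uM) were added alongside the 0.3 μM P7C3-S326 probe to H2122 cells for 2 hours before 15 minutes of 306 nm UV irradiation. In-gel fluorescence of the p70 band after click labeling was normalized to DMSO.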

aged Fisher rats = conditions: cited from earlier work
[1] = mice and rats, concentrations well above those required to stimulate hippocampal neurogenesis; cited from earlier work
[2] = test system: hippocampal neurogenesis (Dentate Gyrus); conditions: cited from earlier work
[3] = mice; IP, IV or oral routes; cited from earlier work
[4] = test system: hippocampal neurogenesis (Dentate Gyrus); experiment: in vivo neurogenesis assay (BrdU+ cells in dentate gyrus); parameters: species or system mice; conditions: living mice; vehicle (DMSO) 7.3
Method in brief: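 New hippocampal cells were tracked by daily BrdU injections and anti-BrdU staining of brain sections. Adult mice (two per pool of ten compounds) got week-long intracerebroventricular infusion by mini-pump, dosed for mid-nanomolar exposure.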

T1 sequence (P43490 whole entry): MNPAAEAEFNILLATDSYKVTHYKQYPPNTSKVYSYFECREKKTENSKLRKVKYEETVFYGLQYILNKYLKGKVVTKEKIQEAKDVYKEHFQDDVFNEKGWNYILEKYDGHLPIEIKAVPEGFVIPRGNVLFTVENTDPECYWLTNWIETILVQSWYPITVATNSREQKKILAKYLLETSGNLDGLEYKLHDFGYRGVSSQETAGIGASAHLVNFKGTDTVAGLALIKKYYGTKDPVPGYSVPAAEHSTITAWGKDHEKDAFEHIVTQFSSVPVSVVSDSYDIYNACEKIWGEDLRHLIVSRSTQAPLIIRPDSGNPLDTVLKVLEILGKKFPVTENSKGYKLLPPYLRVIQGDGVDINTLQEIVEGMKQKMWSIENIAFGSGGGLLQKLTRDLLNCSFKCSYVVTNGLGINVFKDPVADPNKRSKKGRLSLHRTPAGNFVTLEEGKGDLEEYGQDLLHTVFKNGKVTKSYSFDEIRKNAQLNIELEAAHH

Structure (SMILES): OC(CNc1ccccc1)Cn1c2ccc(Br)cc2c2cc(Br)ccc21 (centres unmarked) [P7C3]
- Binding competition (p70 (NAMPT)): 2.6
- body weight relative to vehicle-treated controls (aged Fisher rats): maintained body weight
- cognitive decline (aged Fisher rats): abrogation of cognitive decline
- toxicity on prolonged administration [1]: not overtly toxic to rodents
- enhancement in BrdU-positive hippocampal neurons ([2]; BrdU pulsed one day, then P7C3 for a month): 500%
- enhanced level of BrdU-positive neurons ([2]; week-long dose of P7C3): two-fold
- half-life, volume of distribution and brain penetration [3]: favorable
- Neurogenesis # BrdU+ Cells (X10E06)/mm3 Dentate Gyrus [4]: 15.0 (X10E06)/mm3

Reference: US9243281B2, “Neuroprotective chemicals and methods for identifying and using same” (Board of Regents of The University of Texas System, priority 2013, dated 2016)
